Several values for one entry are separate records, joined by “and”; a condition that tells them apart may be missing. Equal values may be shown once. Numbers after ± are expanded uncertainties.
Conditions: 343.15 K, Liquid, Vibrating tube method

CCCCCC(=O)OCC(COC(=O)CCCCC)(COC(=O)CCCCC)COC(=O)CCCCC [pentaerythritol tetrahexanoate]
Conditions | mass density
311.7 kPa | 957.4 ± 1.2 kg/m3
311.9 kPa | 957.5 ± 1.2 kg/m3
312 kPa | 957.2 ± 1.2 kg/m3
312.2 kPa | 957.3 ± 1.2 kg/m3
312.5 kPa | 957.3 ± 1.2 kg/m3
315 kPa | 957.3 ± 1.2 kg/m3
315.7 kPa | 957.4 ± 1.2 kg/m3
316 kPa | 957.4 ± 1.2 kg/m3
316.5 kPa | 957.4 ± 1.2 kg/m3
316.6 kPa | 957.4 ± 1.2 kg/m3
316.7 kPa | 957.4 ± 1.2 kg/m3
318.5 kPa | 957.4 ± 1.2 kg/m3
318.8 kPa | 957.3 ± 1.2 kg/m3
319.3 kPa | 957.3 ± 1.2 kg/m3 and 957.2 ± 1.2 kg/m3 and 957.4 ± 1.2 kg/m3
319.7 kPa | 957.3 ± 1.2 kg/m3
319.9 kPa | 957.3 ± 1.2 kg/m3
320.4 kPa | 957.2 ± 1.2 kg/m3
320.7 kPa | 957.3 ± 1.6 kg/m3
321.2 kPa | 957.3 ± 1.2 kg/m3
322.1 kPa | 957.1 ± 1.2 kg/m3
322.5 kPa | 957.3 ± 1.2 kg/m3
322.8 kPa | 957.3 ± 1.6 kg/m3
323.1 kPa | 957.3 ± 1.2 kg/m3
323.2 kPa | 957.4 ± 1.2 kg/m3
323.3 kPa | 957.2 ± 1.2 kg/m3
323.7 kPa | 957.4 ± 1.2 kg/m3
323.9 kPa | 957.3 ± 1.2 kg/m3
324 kPa | 957.3 ± 1.2 kg/m3
324.2 kPa | 957.3 ± 1.6 kg/m3
324.5 kPa | 957.3 ± 1.2 kg/m3
324.7 kPa | 957.3 ± 1.6 kg/m3
325.1 kPa | 957.3 ± 1.2 kg/m3
325.2 kPa | 957.3 ± 1.2 kg/m3
325.9 kPa | 957.3 ± 1.2 kg/m3
326.3 kPa | 957.3 ± 1.2 kg/m3
326.4 kPa | 957.4 ± 1.2 kg/m3
326.6 kPa | 957.3 ± 1.2 kg/m3
327 kPa | 957.2 ± 1.2 kg/m3
327.1 kPa | 957.3 ± 1.2 kg/m3
327.5 kPa | 957.4 ± 1.2 kg/m3
327.7 kPa | 957.2 ± 1.2 kg/m3
328 kPa | 957.4 ± 1.2 kg/m3
333.2 kPa | 957.4 ± 1.2 kg/m3
333.4 kPa | 957.3 ± 1.2 kg/m3
333.7 kPa | 957.2 ± 1.2 kg/m3
333.9 kPa | 957.3 ± 1.2 kg/m3
334.3 kPa | 957.2 ± 1.2 kg/m3
334.6 kPa | 957.3 ± 1.2 kg/m3
334.8 kPa | 957.3 ± 1.2 kg/m3
335.1 kPa | 957.4 ± 1.2 kg/m3
335.5 kPa | 957.3 ± 1.4 kg/m3
336.2 kPa | 957.3 ± 1.2 kg/m3
336.5 kPa | 957.3 ± 1.2 kg/m3
336.9 kPa | 957.4 ± 1.2 kg/m3
338.1 kPa | 957.3 ± 1.2 kg/m3
338.6 kPa | 957.3 ± 1.2 kg/m3
339.1 kPa | 957.3 ± 1.2 kg/m3 and 957.2 ± 1.2 kg/m3
339.5 kPa | 957.3 ± 1.2 kg/m3
339.8 kPa | 957.3 ± 1.2 kg/m3
340.2 kPa | 957.3 ± 1.2 kg/m3
340.5 kPa | 957.3 ± 1.2 kg/m3
340.9 kPa | 957.5 ± 1.2 kg/m3
341.6 kPa | 957.4 ± 1.2 kg/m3 and 957.2 ± 1.2 kg/m3
341.9 kPa | 957.4 ± 1.2 kg/m3
342.1 kPa | 957.4 ± 1.2 kg/m3
342.8 kPa | 957.2 ± 1.2 kg/m3 and 957.3 ± 1.2 kg/m3
343.1 kPa | 957.3 ± 1.2 kg/m3
343.5 kPa | 957.3 ± 1.2 kg/m3
343.6 kPa | 957.4 ± 1.2 kg/m3
344.2 kPa | 957.4 ± 1.2 kg/m3
344.3 kPa | 957.3 ± 1.2 kg/m3
345.9 kPa | 957.3 ± 1.2 kg/m3
346.4 kPa | 957.4 ± 1.2 kg/m3
346.8 kPa | 957.3 ± 1.2 kg/m3
347.3 kPa | 957.4 ± 1.2 kg/m3
348 kPa | 957.3 ± 1.2 kg/m3
348.3 kPa | 957.2 ± 1.2 kg/m3
351.8 kPa | 957.3 ± 1.2 kg/m3
352.2 kPa | 957.2 ± 1.2 kg/m3
352.7 kPa | 957.4 ± 1.2 kg/m3
352.9 kPa | 957.2 ± 1.2 kg/m3
353 kPa | 957.3 ± 1.2 kg/m3
358.8 kPa | 957.4 ± 1.2 kg/m3
359.3 kPa | 957.3 ± 1.2 kg/m3
359.6 kPa | 957.4 ± 1.2 kg/m3
363.3 kPa | 957.4 ± 1.2 kg/m3
363.6 kPa | 957.3 ± 1.2 kg/m3
364 kPa | 957.4 ± 1.2 kg/m3
364.5 kPa | 957.4 ± 1.2 kg/m3
364.7 kPa | 957.4 ± 1.2 kg/m3
365 kPa | 957.4 ± 1.2 kg/m3
365.4 kPa | 957.4 ± 1.2 kg/m3
368.8 kPa | 957.3 ± 1.2 kg/m3
369.2 kPa | 957.3 ± 1.2 kg/m3
369.7 kPa | 957.3 ± 1.2 kg/m3
370.1 kPa | 957.4 ± 1.2 kg/m3
372.8 kPa | 957.3 ± 1.2 kg/m3
373.2 kPa | 957.4 ± 1.2 kg/m3
373.7 kPa | 957.4 ± 1.2 kg/m3
374.1 kPa | 957.5 ± 1.2 kg/m3 and 957.4 ± 1.2 kg/m3
374.7 kPa | 957.3 ± 1.2 kg/m3
374.8 kPa | 957.3 ± 1.2 kg/m3
375.5 kPa | 957.3 ± 1.2 kg/m3
375.8 kPa | 957.2 ± 1.2 kg/m3
376 kPa | 957.3 ± 1.2 kg/m3
376.5 kPa | 957.4 ± 1.2 kg/m3
376.8 kPa | 957.4 ± 1.2 kg/m3
377.4 kPa | 957.3 ± 1.2 kg/m3
377.5 kPa | 957.4 ± 1.2 kg/m3
378.1 kPa | 957.4 ± 1.2 kg/m3
378.6 kPa | 957.4 ± 1.2 kg/m3
379.1 kPa | 957.3 ± 1.2 kg/m3
380.5 kPa | 957.4 ± 1.2 kg/m3
380.8 kPa | 957.5 ± 1.2 kg/m3
381.2 kPa | 957.5 ± 1.2 kg/m3
381.5 kPa | 957.5 ± 1.2 kg/m3
382.1 kPa | 957.3 ± 1.2 kg/m3
382.7 kPa | 957.3 ± 1.2 kg/m3
382.9 kPa | 957.4 ± 1.2 kg/m3
383.6 kPa | 957.4 ± 1.2 kg/m3
383.8 kPa | 957.4 ± 1.2 kg/m3
384.3 kPa | 957.4 ± 1.2 kg/m3
384.5 kPa | 957.4 ± 1.2 kg/m3
384.8 kPa | 957.5 ± 1.2 kg/m3
385.5 kPa | 957.4 ± 1.2 kg/m3 and 957.5 ± 1.2 kg/m3
385.9 kPa | 957.4 ± 1.2 kg/m3
386.7 kPa | 957.5 ± 1.2 kg/m3
390.6 kPa | 957.4 ± 1.2 kg/m3
390.9 kPa | 957.4 ± 1.2 kg/m3
391.4 kPa | 957.3 ± 1.2 kg/m3
391.8 kPa | 957.5 ± 1.2 kg/m3
392 kPa | 957.3 ± 1.2 kg/m3
392.8 kPa | 957.4 ± 1.2 kg/m3
393.2 kPa | 957.4 ± 1.2 kg/m3
393.7 kPa | 957.4 ± 1.2 kg/m3
394 kPa | 957.4 ± 1.2 kg/m3
394.9 kPa | 957.3 ± 1.2 kg/m3
395.1 kPa | 957.5 ± 1.2 kg/m3
395.4 kPa | 957.3 ± 1.2 kg/m3
395.8 kPa | 957.3 ± 1.2 kg/m3
396.3 kPa | 957.4 ± 1.2 kg/m3
396.8 kPa | 957.4 ± 1.2 kg/m3
397.2 kPa | 957.4 ± 1.2 kg/m3
397.7 kPa | 957.5 ± 1.2 kg/m3
397.9 kPa | 957.4 ± 1.2 kg/m3

Reference: the NIST ThermoML archive (doi:10.1021/je060271a)
